Assays:
Assay in all cases: Sensitivity test (agar dilution), clinical isolate
Format in all cases: cell-based, Serratia marcescens
S. marcescens 1944950 = system: S. marcescens 1944950
Procedure: (§1) In addition, the antibacterial activities were tested against strains which are comparatively less sensitive to β-lactam compounds, namely clinically isolated 13 strains of Acinetobacter calcoaceticus and Acinetobacter lwoffi, clinically isolated 11 strains of Serratia marcescens, clinically isolated 12 strains of Burkholderia cepacia, and clinically isolated 15 strains of Pseudomonas aeruginosa.
(§2) According to the standard method of Japan Chemotherapeutic Society (Chemotherapy, vol. […], p 76-79 (1981)) the test was carried out using the agar dilution method. After dissolving test samples in distilled water, agar medium containing the test samples was prepared in such a manner that the final concentration became twice serial dilution by pouring serially diluted combination drug solution or a single drug solution into agar medium. As agar medium was used Mueller Hinton Agar medium (MHA). Then, each strain was cultivated over night at 37° C. in an incubator and suspended in buffered saline solution with gelatin (BSG) in the concentration of about 10^6 CFU/ml. The suspension (about 5 μl) containing test strains was inoculated to the medium containing the test samples by Micro Planter.
(§3) Each drug was weighed, and dissolved in distilled water to give a test sample. When the drugs are used in combination, two kinds of solution containing each drug were mixed so as to be various ratio of concentration to give a mixed solution. When the sample is subjected to sensitivity test, this mixed solution was diluted by twice serial dilution method.
(§4) Furthermore, when the drug is solely used, each test sample was used as it is, and diluted by twice serial dilution method from the maximum concentration to the minimum concentration.

S. marcescens 2054522 = system: S. marcescens 2054522
Procedure: as §1, §2, §3, §4

S. marcescens 14981 = system: S. marcescens 14981
Procedure: as §1, §2, §3, §4

S. marcescens 2012884 = system: S. marcescens 2012884
Procedure: as §1, §2, §3, §4

S. marcescens 14991 = system: S. marcescens 14991
Procedure: as §1, §2, §3, §4

S. marcescens 14424 = system: S. marcescens 14424
Procedure: as §1, §2, §3, §4

S. marcescens 1928513 = system: S. marcescens 1928513
Procedure: as §1, §2, §3, §4

S. marcescens 7155 = system: S. marcescens 7155
Procedure: as §1, §2, §3, §4

S. marcescens 7138 = system: S. marcescens 7138
Procedure: as §1, §2, §3, §4

S. marcescens 14425 = system: S. marcescens 14425
Procedure: as §1, §2, §3, §4

S. marcescens 14689 = system: S. marcescens 14689
Procedure: as §1, §2, §3, §4

[1] = Serratia marcescens, 1944950, Concomitant (ME:SM = 1:1)
[2] = Serratia marcescens, 1944950, Concomitant (ME:SM = 1:2)
[3] = Serratia marcescens, 1944950, Concomitant (ME:SM = 1:4)
[4] = Serratia marcescens, 1944950, Concomitant (ME:SM = 2:1)
[5] = Serratia marcescens, 1944950, alone
[6] = Serratia marcescens, 2054522, Concomitant (ME:SM = 1:1)
[7] = Serratia marcescens, 2054522, Concomitant (ME:SM = 1:2)
[8] = Serratia marcescens, 2054522, Concomitant (ME:SM = 1:4)
[9] = Serratia marcescens, 2054522, Concomitant (ME:SM = 2:1)
[10] = Serratia marcescens, 2054522, alone
[11] = Serratia marcescens, 14981, Concomitant (ME:SM = 1:1)
[12] = Serratia marcescens, 14981, Concomitant (ME:SM = 1:2)
[13] = Serratia marcescens, 14981, Concomitant (ME:SM = 1:4)
[14] = Serratia marcescens, 14981, Concomitant (ME:SM = 2:1)
[15] = Serratia marcescens, 14981, alone
[16] = Serratia marcescens, 2012884, Concomitant (ME:SM = 1:1)
[17] = Serratia marcescens, 2012884, Concomitant (ME:SM = 1:2)
[18] = Serratia marcescens, 2012884, Concomitant (ME:SM = 1:4)
[19] = Serratia marcescens, 2012884, Concomitant (ME:SM = 2:1)
[20] = Serratia marcescens, 2012884, alone
[21] = Serratia marcescens, 14991, Concomitant (ME:SM = 1:1)
[22] = Serratia marcescens, 14991, Concomitant (ME:SM = 1:2)
[23] = Serratia marcescens, 14991, Concomitant (ME:SM = 1:4)
[24] = Serratia marcescens, 14991, Concomitant (ME:SM = 2:1)
[25] = Serratia marcescens, 14991, alone
[26] = Serratia marcescens, 14424, Concomitant (ME:SM = 1:1)
[27] = Serratia marcescens, 14424, Concomitant (ME:SM = 1:2)
[28] = Serratia marcescens, 14424, Concomitant (ME:SM = 1:4)
[29] = Serratia marcescens, 14424, Concomitant (ME:SM = 2:1)
[30] = Serratia marcescens, 14424, alone
[31] = Serratia marcescens, 1928513, Concomitant (ME:SM = 1:1)
[32] = Serratia marcescens, 1928513, Concomitant (ME:SM = 1:2)
[33] = Serratia marcescens, 1928513, Concomitant (ME:SM = 1:4)
[34] = Serratia marcescens, 1928513, Concomitant (ME:SM = 2:1)
[35] = Serratia marcescens, 1928513, alone
[36] = Serratia marcescens, 7155, Concomitant (ME:SM = 1:1)
[37] = Serratia marcescens, 7155, Concomitant (ME:SM = 1:2)
[38] = Serratia marcescens, 7155, Concomitant (ME:SM = 1:4)
[39] = Serratia marcescens, 7155, Concomitant (ME:SM = 2:1)
[40] = Serratia marcescens, 7155, alone
[41] = Serratia marcescens, 7138, Concomitant (ME:SM = 1:1)
[42] = Serratia marcescens, 7138, Concomitant (ME:SM = 1:2)
[43] = Serratia marcescens, 7138, Concomitant (ME:SM = 1:4)
[44] = Serratia marcescens, 7138, Concomitant (ME:SM = 2:1)
[45] = Serratia marcescens, 7138, alone
[46] = Serratia marcescens, 14425, Concomitant (ME:SM = 1:1)
[47] = Serratia marcescens, 14425, Concomitant (ME:SM = 1:2)
[48] = Serratia marcescens, 14425, Concomitant (ME:SM = 1:4)
[49] = Serratia marcescens, 14425, Concomitant (ME:SM = 2:1)
[50] = Serratia marcescens, 14425, alone
[51] = Serratia marcescens, 14689, Concomitant (ME:SM = 1:1)
[52] = Serratia marcescens, 14689, Concomitant (ME:SM = 1:2)
[53] = Serratia marcescens, 14689, Concomitant (ME:SM = 1:4)
[54] = Serratia marcescens, 14689, Concomitant (ME:SM = 2:1)
[55] = Serratia marcescens, 14689, alone

Measured: MIC

C[C@@H](O)[C@H]1C(=O)N2C(C(=O)O)=C(S[C@@H]3CN[C@H](C(=O)N(C)C)C3)[C@H](C)[C@H]12 [MEPM, meropenem]
4 µg/mL: S. marcescens 1944950; [2] | S. marcescens 1944950; [3] | S. marcescens 2012884; [19] | S. marcescens 2012884; [20] | S. marcescens 14424; [29] | S. marcescens 14424; [30] | S. marcescens 14689; [54] | S. marcescens 14689; [55]
0.031 µg/mL: S. marcescens 14425; [46] | S. marcescens 14425; [47] | S. marcescens 14425; [48] | S. marcescens 14425; [49] | S. marcescens 14425; [50]
1 µg/mL: S. marcescens 2054522; [6] | S. marcescens 2054522; [9] | S. marcescens 2054522; [10] | S. marcescens 14981; [11] | S. marcescens 14981; [14] | S. marcescens 14981; [15] | S. marcescens 2012884; [18] | S. marcescens 14991; [22] | S. marcescens 14991; [23] | S. marcescens 14991; [24] | S. marcescens 14991; [25] | S. marcescens 1928513; [31] | S. marcescens 1928513; [34] | S. marcescens 1928513; [35] | S. marcescens 7155; [37] | S. marcescens 7138; [42]
8 µg/mL: S. marcescens 1944950; [1] | S. marcescens 1944950; [4] | S. marcescens 1944950; [5] | S. marcescens 14424; [26]
2 µg/mL: S. marcescens 2012884; [16] | S. marcescens 2012884; [17] | S. marcescens 14991; [21] | S. marcescens 14424; [27] | S. marcescens 14424; [28] | S. marcescens 7155; [36] | S. marcescens 7155; [39] | S. marcescens 7155; [40] | S. marcescens 7138; [41] | S. marcescens 7138; [44] | S. marcescens 7138; [45] | S. marcescens 14689; [51] | S. marcescens 14689; [52] | S. marcescens 14689; [53]
0.5 µg/mL: S. marcescens 2054522; [7] | S. marcescens 2054522; [8] | S. marcescens 14981; [12] | S. marcescens 14981; [13] | S. marcescens 1928513; [32] | S. marcescens 1928513; [33] | S. marcescens 7155; [38] | S. marcescens 7138; [43]

C[C@H]1C=C(c2csc(SC3=C(C(=O)O)N4C(=O)[C@H]([C@@H](C)O)[C@H]4[C@H]3C)n2)CN1 [SM, (4R,5S,6S)-6-[(1R)-1-Hydroxyethyl]-4-methyl-3-({4-[(5S)-5-methyl-2,5-dihydro-1H-pyrrol-3-yl]-1,3-thiazol-2-yl}sulfanyl)-7-oxo-1-azabicyclo[3.2.0]hept-2-ene-2-carboxylic acid]
16 µg/mL: S. marcescens 1944950; [3] | S. marcescens 14424; [30]
0.125 µg/mL: S. marcescens 14425; [48]
0.016 µg/mL: S. marcescens 14425; [49]
1 µg/mL: S. marcescens 2054522; [6] | S. marcescens 2054522; [7] | S. marcescens 14981; [11] | S. marcescens 14981; [12] | S. marcescens 1928513; [31] | S. marcescens 1928513; [32] | S. marcescens 7155; [39] | S. marcescens 7138; [44]
2 µg/mL: S. marcescens 2054522; [8] | S. marcescens 14981; [13] | S. marcescens 2012884; [16] | S. marcescens 2012884; [19] | S. marcescens 14991; [21] | S. marcescens 14991; [22] | S. marcescens 14424; [29] | S. marcescens 1928513; [33] | S. marcescens 7155; [36] | S. marcescens 7155; [37] | S. marcescens 7155; [38] | S. marcescens 7138; [41] | S. marcescens 7138; [42] | S. marcescens 7138; [43] | S. marcescens 14425; [50] | S. marcescens 14689; [51] | S. marcescens 14689; [54]
0.031 µg/mL: S. marcescens 14425; [46]
32 µg/mL: S. marcescens 1944950; [5] | S. marcescens 14991; [25] | S. marcescens 14689; [55]
0.5 µg/mL: S. marcescens 2054522; [9] | S. marcescens 14981; [14] | S. marcescens 14991; [24] | S. marcescens 1928513; [34]
0.063 µg/mL: S. marcescens 14425; [47]
8 µg/mL: S. marcescens 1944950; [1] | S. marcescens 1944950; [2] | S. marcescens 2054522; [10] | S. marcescens 14981; [15] | S. marcescens 2012884; [20] | S. marcescens 14424; [26] | S. marcescens 14424; [28] | S. marcescens 1928513; [35] | S. marcescens 7155; [40] | S. marcescens 7138; [45] | S. marcescens 14689; [53]
4 µg/mL: S. marcescens 1944950; [4] | S. marcescens 2012884; [17] | S. marcescens 2012884; [18] | S. marcescens 14991; [23] | S. marcescens 14424; [27] | S. marcescens 14689; [52]

Reference: patent publication US20090018111A1, “Novel Antimicrobial Medicament” (priority 2004, published 2009)
